Results on twelve compounds are retold here after US20100227853A1, “INHIBITORS OF CYCLIC AMP PHOSPHODIESTERASES” (Trustees of Boston College, priority 2008, published 2010).

Entries after “also recorded” stand apart in the source; their conditions may differ.

In one experiment the target is T1, PDE4D3 (Homo sapiens, UniProt Q08499).
T1 construct: targets used in the assays are full-length proteins (as opposed to simply the catalytic domain); expressed in transfected cells; host or cells: Schizosaccharomyces pombe, PDE gene integrated in place of cgs2
Kind of experiment: 5FOA growth assay in fission yeast strain expressing PDE4D3. The class given is cell-based. To be noted: for EC50: OD600 0.6, read-out: ED50 for 5FOA growth assays, PDE4D3. How it is done:
Cells were pregrown in EMM medium [MP Biomedicals (Solon, Ohio), 3% glucose, filter-sterilized to avoid carmelization, which would introduce variability into the optical density of the medium] containing from 0 mM to 2.5 mM cAMP (or either 0.5 mM or 1.0 mM cGMP). This was to repress expression of the fbp1-ura4 reporter prior to exposure of cells to 5FOA medium. Cells were grown at 30° C. to exponential phase (approximately 10^7 cells/ml). […] Starting cell concentrations ranged from 0.5×10^5 to 4×10^5 cells/ml depending on the screening strain. […] Other positive control dishes contained 5 mM cAMP in the 5FOA medium for PDEs that lack appropriate control compounds. Cultures were grown for 48 hours at 30° C., sealed in an airtight container with moist paper towels to prevent evaporation. Optical densities (OD600) of cultures were measured using a microplate reader. Bioinformatic analysis of the results to determine composite Z scores was performed as previously described (1, 3).

Experiment [1] has as its system PDE4A, PDE4B, PDE4D, PDE7A, PDE7B, PDE8A, PDE3A. The experiment can be described thus: Summary of PDE inhibitor profile. As to conditions: for PDE inhibitor profile (Table 17): overall classification, Table 17 footnotes. Also on record: key to PDE inhibitor profile (Table 17): (1): Strong PDE4A, PDE4B inhibitor; (2): Strong PDE4A inhibitor; (3): Strong PDE4B, moderate PDE4A inhibitor; (4): Moderate PDE4A, PDE4B inhibitor; (5): Moderate PDE4B inhibitor; key to inhibitor class, Table 15: (1): Strong PDE4A5 inhibitor; (2): Strong PDE4A, 4B inhibitor; Moderate PDE4D inhibitor; (3): Strong PDE4A. 4B inhibitor; (4): Strong PDE4A, 4B, PDE7A inhibitor: Weak PDE4D inhibitor; key to inhibitor class, Table 16: (1): Weak PDE7A inhibitor; (2): Strong PDE7A inhibitor; (3): Lillte/no activity under conditions used; (4): Weak PDE4A inhibitor.

Another experiment deals with T2, PDE4A5 (Rattus norvegicus, UniProt P54748).
T2 construct: targets used in the assays are full-length proteins (as opposed to simply the catalytic domain); expressed in transfected cells; host or cells: Schizosaccharomyces pombe, PDE gene integrated in place of cgs2
T2 sequence (P54748 1-844): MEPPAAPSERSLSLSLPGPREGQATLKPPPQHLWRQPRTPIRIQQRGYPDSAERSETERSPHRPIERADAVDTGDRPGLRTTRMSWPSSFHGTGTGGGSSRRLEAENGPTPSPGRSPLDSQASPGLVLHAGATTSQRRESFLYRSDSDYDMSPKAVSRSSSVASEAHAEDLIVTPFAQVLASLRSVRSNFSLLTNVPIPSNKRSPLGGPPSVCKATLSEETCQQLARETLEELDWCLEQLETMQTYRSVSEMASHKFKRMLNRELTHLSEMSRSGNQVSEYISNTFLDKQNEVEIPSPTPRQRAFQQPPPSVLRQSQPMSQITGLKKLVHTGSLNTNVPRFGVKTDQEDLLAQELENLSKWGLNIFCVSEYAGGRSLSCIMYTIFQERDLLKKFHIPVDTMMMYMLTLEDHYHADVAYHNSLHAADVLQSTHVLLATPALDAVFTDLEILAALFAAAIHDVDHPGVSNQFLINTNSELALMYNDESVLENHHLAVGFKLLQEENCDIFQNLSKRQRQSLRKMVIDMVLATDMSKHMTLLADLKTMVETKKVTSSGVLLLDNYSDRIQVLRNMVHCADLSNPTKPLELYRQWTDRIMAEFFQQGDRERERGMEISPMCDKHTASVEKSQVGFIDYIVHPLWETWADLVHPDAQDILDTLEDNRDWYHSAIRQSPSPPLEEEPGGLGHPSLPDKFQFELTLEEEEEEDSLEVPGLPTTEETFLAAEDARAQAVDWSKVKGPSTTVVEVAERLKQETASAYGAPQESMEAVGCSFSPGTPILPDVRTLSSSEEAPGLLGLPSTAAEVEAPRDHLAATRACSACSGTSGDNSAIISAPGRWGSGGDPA
The experiment can be described thus: 5FOA growth assay in fission yeast strain expressing PDE4A5. The format is cell-based. As to conditions: for Composite Z score, PDE4A5: high throughput 5FOA growth screen. How it is done: High throughput drug screens were carried out at the Broad Institute's Chemical Biology Program screening facility (Broad Institute, Cambridge, Mass.). Depending upon the strain, cultures were pregrown to exponential phase in EMM complete medium containing from 0.5 to 2.5 mM cAMP to repress fbp1-ura4 transcription. Cells were collected by centrifugation, resuspended in 5FOA medium, and 25 μl were transferred to 384-well microtiter dishes (untreated, with flat clear bottoms) that had been pre-filled with 25 μl 5FOA medium and pre-pinned with 100 nl of compounds (stock solutions were generally 10 mM) from a subset of the Prestwick Bioactive and the Microsource Spectrum compound libraries. Starting cell concentrations ranged from 0.5×10^5 to 4×10^5 cells/ml depending on the screening strain. […] Other positive control dishes contained 5 mM cAMP in the 5FOA medium. Cultures were grown for 48 hours at 30° C., sealed in an airtight container with moist paper towels to prevent evaporation. Optical densities (OD600) of cultures were measured using a microplate reader. Bioinformatic analysis of the results to determine composite Z scores was performed as previously described^30, 31.
Cells were pregrown in EMM medium [MP Biomedicals (Solon, Ohio), 3% glucose, filter-sterilized to avoid carmelization, which would introduce variability into the optical density of the medium] containing from 0 mM to 2.5 mM cAMP (or either 0.5 mM or 1.0 mM cGMP). This was to repress expression of the fbp1-ura4 reporter prior to exposure of cells to 5FOA medium. Cells were grown at 30° C. to exponential phase (approximately 10^7 cells/ml). Cells were collected by centrifugation and resuspended in 5FOA medium, and 25 μl were transferred to 384-well microtiter dishes (untreated, with flat clear bottoms) that had been pre-filled with 25 μl 5FOA medium and pre-pinned with 100 nl of compounds (stock solutions were generally 10 mM). Starting cell concentrations ranged from 0.5×10^5 to 4×10^5 cells/ml depending on the screening strain. […] Other positive control dishes contained 5 mM cAMP in the 5FOA medium for PDEs that lack appropriate control compounds. Cultures were grown for 48 hours at 30° C., sealed in an airtight container with moist paper towels to prevent evaporation. Optical densities (OD600) of cultures were measured using a microplate reader. Bioinformatic analysis of the results to determine composite Z scores was performed as previously described (1, 3).

T1 sequence (Q08499 1-673 isoform Q08499-2): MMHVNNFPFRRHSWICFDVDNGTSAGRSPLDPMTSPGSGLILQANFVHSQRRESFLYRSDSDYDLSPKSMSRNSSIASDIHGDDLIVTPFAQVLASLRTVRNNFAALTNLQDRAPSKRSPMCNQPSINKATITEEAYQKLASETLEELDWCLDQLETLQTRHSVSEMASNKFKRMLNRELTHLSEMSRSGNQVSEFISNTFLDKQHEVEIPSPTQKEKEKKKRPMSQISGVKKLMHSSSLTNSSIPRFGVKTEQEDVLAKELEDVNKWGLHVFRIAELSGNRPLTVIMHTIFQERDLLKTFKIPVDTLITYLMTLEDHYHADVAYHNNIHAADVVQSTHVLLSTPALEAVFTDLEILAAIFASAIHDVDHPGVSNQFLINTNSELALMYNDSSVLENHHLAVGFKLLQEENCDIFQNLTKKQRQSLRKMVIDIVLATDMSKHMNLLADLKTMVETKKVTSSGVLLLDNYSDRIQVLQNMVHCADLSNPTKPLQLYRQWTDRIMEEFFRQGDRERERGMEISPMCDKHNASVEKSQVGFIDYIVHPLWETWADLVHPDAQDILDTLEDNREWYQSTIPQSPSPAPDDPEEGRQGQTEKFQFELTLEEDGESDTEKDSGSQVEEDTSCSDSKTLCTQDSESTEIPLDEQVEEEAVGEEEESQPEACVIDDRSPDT

As for `Cc1sc2ncnc(Nc3ccccc3)c2c1C` [BC64], at PDE4D3, the EC50 is > 200 µM. The “PDE inhibitor profile, in words” value in experiment [1] is listed as “moderate PDE7 inhibitor”.
Turning to `CCN(CC)c1ncnc2sc3c(c12)CCCC3` [BC44], the “Composite Z score, PDE4A5” value on PDE4A5 is recorded as 63.222. Also, the EC50 at PDE4D3 worked out at 3.3 µM. The “PDE inhibitor profile, in words” value in experiment [1] is “very good PDE4 and PDE7 inhibitor, with low PDE4D inhibition”.
Take `COC(=O)C1=C(C)N(c2ccccc2Cl)C(=O)/C1=C\c1cccs1` [Compound 27]: on PDE4A5, the “2 Assay (2 uM), 4A5” value worked out at 12.63 and the “1 Assay (20 uM) 4A5” value is reported as 65.67. Besides, the “2 Assay (2 uM), 4D3” value on PDE4D3 is 0.00. Further, the “inhibitor class, Table 15” value in experiment [1] is 27 (3).
Take `Cc1ccc2c(c1)CCC1CC(=O)CC[C@]21C` (stereo partly shown) [Compound 2158J12]: at PDE4A5 (PDE 4A5), the “2 Assay (2 uM), 4A5” value is 7.00 and the “1 Assay (20 uM) 4A5” value is 113.27. Further, the “2 Assay (2 uM), 4D3” value at PDE4D3 (PDE 4D3) came to 40.17. For the same compound, on PDE4D3 (20 uM, PDE 4D3), the “1 Assay (20 uM) 4D3” value turned out to be 14.84.
In the case of `CCC1CCc2c(sc3ncnc(N4CCOCC4)c23)C1` (stereo not shown) [BC33], the “Composite Z score, PDE4A5” value at PDE4A5 was found to be 36.026. Also, the EC50 on PDE4D3 stood at 33 µM. In addition, in experiment [1], the “PDE inhibitor profile, in words” value is “PDE4 inhibitor. It also shows some activity on PDE4D3 (but not 4D2)”.
`Cc1ccc2c(c1)c1nc3ccccc3nc1n2C(C)C` [Compound 41]: the “1 Assay (20 uM) 4A5” value on PDE4A5 (PDE 4A5) stood at 84.08. Further, the “PDE inhibitor profile (Table 17)” value in experiment [1] is given as 41 (1).
For `C=CCn1c2ccc(Br)cc2c2nc3ccccc3nc21` [2017, C18], the “1 Assay (20 uM) 4A5” value on PDE4A5 (PDE 4A5) was determined as 69.70 ND ND ND ND. In addition, the “PDE inhibitor profile (Table 17)” value in experiment [1] is 2017, C18 (4).
For `COC(=O)C1=C(C)N(C2CCCCC2)C(=O)/C1=C\c1cccs1` [Compound 22], on PDE4A5, the “2 Assay (2 uM), 4A5” value is reported as 13.66 and the “1 Assay (20 uM) 4A5” value was −0.06. Also, on PDE4D3, the “2 Assay (2 uM), 4D3” value is 42.32. The “inhibitor class, Table 15” value in experiment [1] was 22 (4).
As for `N#Cc1sc2sc(C#N)c(-c3ccco3)c2c1N` [Compound 30], at PDE4A5, the “2 Assay (2 uM), 4A5” value came to 2.79 and the “1 Assay (20 uM) 4A5” value is 2.14. The “inhibitor class, Table 16” value in experiment [1] is listed as 30 KM03472 (2).
In the case of `COc1ccc2c(c1)[C@@]1(C)CCC[C@](C)(CO)C1CC2` (stereo partly shown) [Compound 2067M03], on PDE4A5 (PDE 4A5), the “2 Assay (2 uM), 4A5” value is on record as 8.43 and the “1 Assay (20 uM) 4A5” value is 16.94. Besides, at PDE4D3 (PDE 4D3), the “2 Assay (2 uM), 4D3” value is “ND 1.24 ND ND ND”.
On to `Cc1c(C(=O)Nc2ccc(F)cc2F)sc2ncnc(N3CCC(C)CC3)c12` [BC58], for which the “Composite Z score, PDE4A5” value on PDE4A5 stood at 154.72. The “PDE inhibitor profile, in words” value in experiment [1] is “effective PDE4A/4B inhibitor that exhibits limited/essentially no inhibition of PDE4D; also recorded: PDE4A/4B-specific inhibitor”.
With `COC(=O)C1=C(C)N(c2ccccc2)/C(=C/c2cccs2)C1=O` [2008, K19], on PDE4A5, the “1 Assay (20 uM) 4A5” value turned out to be 0.06 ND ND ND ND. Also, the “inhibitor class, Table 15” value in experiment [1] is on record as 2008, K19 (1).
